The text below walks through data of article PMC10126514, “The interaction of peptide inhibitors and Aβ protein: Binding mode analysis, inhibition of the formation of Aβ aggregates, and then exert neuroprotective effects” (Frontiers in Aging Neuroscience, 2023).

One data set deals with T1, Aβ1–42 (Homo sapiens, UniProt P05067).
T1 construct: purchased GL Biochem Ltd. (Shanghai)
As to the kind of experiment: SPR affinity of peptide and Aβ1–42. Type of data set: binding. Conditions: for Binding ability ranking by KD / Binding phase of SPR kinetic curve / Dissociation phase of SPR kinetic curve: SPR, qualitative. How it is done:
Surface Plasmon Resonance (SPR) is a sensitive surface analysis technique that detects changes in dielectric constant caused by molecules adsorbed on heavy metal films. In this study, the 1-(3-Dimethylaminopropyl)-3-ethylcarbodiimide hydrochloride (EDC) and N-Hydroxy succinimide (NHS) in the coupling kit were, respectively, dissolved in 1 mL of activation buffer, divided into 10 parts, 100 μL/part, and stored at −20°C for later use. Before the experiment, first install the CM5 chip in the machine and wash it with HBS-EP buffer 3 times. […] After the experiment is over, use the Evaluation software to analyze the results, and use Flow Cell2 to subtract the background signal of channel 1 as the experimental result. The 1:1 binding method is used for fitting calculation and analysis of affinity parameters: binding rate constant ka (1/Ms), dissociation rate constant kd (1/s) and equilibrium dissociation constant KD (M), KD = kd/ ka, the smaller the KD value, the stronger the affinity.
For orientation: SPR reads the build-up and loss of mass on a sensor chip optically.

Data set [1] deals with PC12 cells. Type of data set: cell-based, Rat. On the procedure:
Pipette the cultured cells in a cell culture flask repeatedly to make them evenly distributed. Use a pipete to pipete 10 μL of cell suspension and transfer to a cell counting plate for counting. Count under a microscope to calculate the number of living cells distributed in a large square composed of 16 squares on the cytometer. Cell density (pcs / mL) = (sum of cell count/4) × 10^4 Calculate the cell concentration, repeat counting 2–3 times for each sample (the value should not be too different each time, otherwise the operation should be repeated). If there are less than 5 cells in each large square, you need to re-centrifuge to adjust the cell concentration.
Use CCK-8 kit to detect cell viability, reflecting the cytotoxicity of peptide inhibitors themselves. The counted PC12 cells were plated at 100 μL/well (8 × 10^4 cells/well). After put the 96-well plate at 37°C for 12 h, discard the medium, add 100 μL of medium containing different concentrations of peptide inhibitors to each well, and continue to culture 24 h. […] The wells with DMEM medium solution containing no peptide inhibitors but containing cells were used as the control group.
Cell Viability(%)=ODadministration group−[…]ODcontrol group−ODblank group×100%

The next data set deals with Aβ1–42 aggregation. Kind of data set: ThT fluorescence, inhibition of Aβ1–42 aggregation. Type of data set: biochemical, Human. Conditions: for ThT fluorescence intensity vs Aβ group: PBS, ex 440/em 480 nm. How it is done: ThT is a chemical fluorescent dye. […] Based on this fluorescence phenomenon, ThT is used as a kind of fluorescent indicator to detect the degree of aggregation of Aβ.
Take about 10 μL of the sample, dilute it 20 times with ThT solution, and read the fluorescence intensity value with a microplate reader, 440 nm is the excitation wavelength, and 480 nm is the emission wavelength, and the bandwidth is 5 nm. […] The sample was repeated five times and the average value was taken.

The subject of data set [2] is PC12 cells. Particulars: CCK-8, co-incubated with Aβ1–42 72 h.
Description: Rat adrenal pheochromocytoma (PC12) cells were donated by Zhengzhou University School of Basic Medicine (#CRL-1721; RRID: CVCL-0481) in DMEM containing 10% fetal bovine serum, 1% penicillin and 1% streptomycin, culture in a cell incubator with 5% CO2 and 37°C, and passage once every 3 days.
Add 10 μL of CCK-8 solution to each well and continue to incubate for 2 h. Add 10 μL of CCK-8 solution to each well and continue to incubate for 2 h. The wells with normal DMEM medium and cell solution were used as the control group. The wells with 100 μL DMEM medium and 10 μL CCK-8 solution but no cells were used as the blank control, and the absorbance was measured at 450 nm.
The subject of data set [3] is PC12 cells. Particulars: cited from earlier work. The text has this:
Abnormally precipitated Aβ in amyloid plaques becomes one of the hallmark proteins of brain nerve damage in AD patients, and promotes the deterioration of AD. The accumulation of Aβ protein is caused by the interaction between the hydrophobic center and the C-terminal molecule ([Kapadia et al., 2021]). At present, the development of anti-Aβ aggregation compounds is a promising approach in the treatment of AD, and many clinical trials are ongoing. […] However, these peptides have high specificity and low toxicity, which will make them candidate drugs for peptide inhibitors against Aβ aggregation ([Fosgerau and Hoffmann, 2015]). Peptides designed by computer simulation and applied to Alzheimer’s disease are becoming more and more popular and welcomed by researchers. At present, the peptide inhibitors of Aβ aggregation include LVFF, KLVFF, KLVFF modified peptide (QKL ...

The next data set deals with apoptosis caused by Aβ. Conditions: ref Hadipour et al., 2020; cited from earlier work. The text has this: Abnormally precipitated Aβ in amyloid plaques becomes one of the hallmark proteins of brain nerve damage in AD patients, and promotes the deterioration of AD. The accumulation of Aβ protein is caused by the interaction between the hydrophobic center and the C-terminal molecule ([Kapadia et al., 2021]). At present, the development of anti-Aβ aggregation compounds is a promising approach in the treatment of AD, and many clinical trials are ongoing.

Another data set concerns Aβ1–42 oligomerization. Conditions: ref Takahashi and Mihara, 2008, cited from earlier work. The text has this: (§1) In recent years, through the emergence of peptides that inhibit the aggregation of Aβ, extensive research has been conducted on peptides for the treatment of Alzheimer’s disease. However, these peptides have high specificity and low toxicity, which will make them candidate drugs for peptide inhibitors against Aβ aggregation ([Fosgerau and Hoffmann, 2015]). Peptides designed by computer simulation and applied to Alzheimer’s disease are becoming more and more popular and welcomed by researchers. At present, the peptide inhibitors of Aβ aggregation include LVFF, KLVFF, KLVFF modified peptide (QKL ...

For a further data set, the system named is Aβ aggregation. Conditions: cited from earlier work; for Aβ aggregation and toxicity: ref Cheng et al., 2012.
Excerpt: as §1

Setting [4] is: peptide 50 μM, Aβ1–42 25 μM, 37°C, 24 h, ThT.
The mark [5] stands for this setting: peptide 50 μM, Aβ1–42 25 μM, 37°C, 24 h, n = 5 mean.

“Also recorded” adds a separate entry of the source. Residues, ends and D or L forms follow the SMILES beside them.

T1 sequence (P05067 672-713 limits assumed): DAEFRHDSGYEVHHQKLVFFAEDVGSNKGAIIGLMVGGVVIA

For the compound `CC(=O)N[C@@H](Cc1ccc(O)cc1)C(=O)N[C@H](C(=O)N[C@@H](CCCNC(=N)N)C(=O)N[C@@H](Cc1c[nH]cn1)C(=O)N[C@@H](Cc1c[nH]cn1)C(=O)N[C@@H](Cc1c[nH]cn1)C(=O)N[C@@H](Cc1ccc(O)cc1)C(=O)N[C@H](C(=O)N[C@@H](CCCNC(=N)N)C(=O)N[C@@H](Cc1c[nH]cn1)C(=O)N[C@@H](Cc1c[nH]cn1)C(=O)N[C@@H](Cc1c[nH]cn1)C(N)=O)C(C)C)C(C)C` [P9] (Ac-YVRHHHYVRHHH-NH2), on Aβ1–42, the Kd (in general, a measure of binding affinity in units of concentration) came out at 14 µM; the “Binding ability ranking by KD” value is listed as “the weakest”; the “Binding phase of SPR kinetic curve” value was “the curve rises steadily, and it takes a long time to reach saturation”; the “Dissociation phase of SPR kinetic curve” value is reported as “relatively slow in the dissociation phase”. Also, in the data set on PC12 cells [1], the “Cell viability at 6.25 μM” value is “began to decrease significantly (p < 0.05)”; the “Cell viability at 25, 50, 100 and 200 μM” value is on record as “decreased significantly, with extremely significant differences (p < 0.01)”. Besides, in the data set with Aβ1–42 aggregation (setting [4]), the “Inhibitory effect on Aβ aggregation” value is “no inhibitory effect on Aβ aggregation”. In the data set with Aβ1–42 aggregation (setting [5]), the “ThT fluorescence intensity vs Aβ group” value is listed as “increased, but the difference is not statistically significant (p > 0.05)”.
For `CC(=O)N[C@@H](Cc1ccc(O)cc1)C(=O)N[C@H](C(=O)N[C@@H](CCCNC(=N)N)C(=O)N[C@@H](Cc1c[nH]cn1)C(=O)N[C@@H](CO)C(=O)N[C@H](C(=O)N[C@@H](Cc1ccc(O)cc1)C(=O)N[C@H](C(=O)N[C@@H](CCCNC(=N)N)C(=O)N[C@@H](Cc1c[nH]cn1)C(=O)N[C@@H](CO)C(=O)N[C@H](C(N)=O)C(C)C)C(C)C)C(C)C)C(C)C` [P11] (Ac-YVRHSVYVRHSV-NH2), at Aβ1–42, the dissociation constant (Kd) turned out to be 20.5 µM; the “Binding phase of SPR kinetic curve” value is “the curve rises steadily, and it takes a long time to reach saturation”; the “Dissociation phase of SPR kinetic curve” value is “relatively slow in the dissociation phase”. The “Cell viability at 3.125 μM” value in the data set with PC12 cells [1] is reported as “cell viability began to decrease significantly at low concentration (3.125 μM) of P11 (p < 0.05)”. Besides, in the data set with Aβ1–42 aggregation (setting [4]), the “Inhibitory effect on Aβ aggregation” value is “certain inhibitory ability on Aβ aggregation”. The “ThT fluorescence intensity vs Aβ group” value with Aβ1–42 aggregation (setting [5]) is “decreased, but the difference was not statistically significant (p > 0.05)”.
`CC(=O)N[C@@H](Cc1ccc(O)cc1)C(=O)N[C@H](C(=O)N[C@@H](CCCNC(=N)N)C(=O)N[C@@H](Cc1c[nH]cn1)C(=O)N[C@@H](CC(=O)O)C(=O)N[C@@H](CC(C)C)C(=O)N[C@@H](Cc1ccc(O)cc1)C(=O)N[C@H](C(=O)N[C@@H](CCCNC(=N)N)C(=O)N[C@@H](Cc1c[nH]cn1)C(=O)N[C@@H](CC(=O)O)C(=O)N[C@@H](CC(C)C)C(N)=O)C(C)C)C(C)C` [P12] (Ac-YVRHDLYVRHDL-NH2): on Aβ1–42, the Kd is 0.327 µM; the “Binding ability ranking by KD” value is recorded as “the strongest”; the “Binding phase of SPR kinetic curve” value is “rises rapidly at the beginning of binding and reaches saturation in a short time”; the “Dissociation phase of SPR kinetic curve” value was “the curve drops rapidly and the dissociation is completed”. Moreover, the “Cell viability at 6.25 μM” value in the data set on PC12 cells [1] is listed as “significant effect on the viability of PC12 cells at 6.25 μM (p < 0.05)”. Moreover, the “Inhibitory effect on Aβ aggregation” value in the data set on Aβ1–42 aggregation (setting [4]) is “no inhibitory effect on Aβ aggregation”. Also, the “ThT fluorescence intensity vs Aβ group” value with Aβ1–42 aggregation (setting [5]) is listed as “increased, but the difference is not statistically significant (p > 0.05)”.
As for `CC(=O)N[C@@H](Cc1ccc(O)cc1)C(=O)N[C@H](C(=O)N[C@@H](CCCNC(=N)N)C(=O)N[C@@H](Cc1c[nH]cn1)C(=O)N[C@@H](CC(C)C)C(=O)N[C@@H](CCCCN)C(=O)N[C@@H](Cc1ccc(O)cc1)C(=O)N[C@H](C(=O)N[C@@H](CCCNC(=N)N)C(=O)N[C@@H](Cc1c[nH]cn1)C(=O)N[C@@H](CC(C)C)C(=O)N[C@@H](CCCCN)C(N)=O)C(C)C)C(C)C` [P21] (Ac-YVRHLKYVRHLK-NH2), at Aβ1–42, binding was characterised by a dissociation constant (Kd) of 53.8 µM; the “Binding phase of SPR kinetic curve” value is “rises rapidly at the beginning, but slowly reaches saturation in the following time, and the binding rate is faster”; the “Dissociation phase of SPR kinetic curve” value is “dissociates relatively quickly”. For the same compound, in the data set on PC12 cells [1], the “Cell viability at 25 μM” value is on record as “significantly reduced at 25 μM (p < 0.05)” and the “Toxicity to PC12 cells at 50 μM” value is “less toxic to PC12 cells at a concentration of 50 μM”. In addition, the “Inhibitory effect on formation of Aβ1–42 aggregates at ratio 1:1” value with Aβ1–42 aggregation (incubated with Aβ1–42 at a ratio of 1:1, ThT, listed as YVRHLKYVRHLK) was “significant inhibitory effect on the formation of Aβ1–42 aggregates when incubated with Aβ1–42 at a ratio of 1:1 (p < 0.05)”. The “Inhibitory effect on Aβ aggregation” value in the data set on Aβ1–42 aggregation (setting [4]) is “strong inhibitory ability on Aβ aggregation; also recorded: good inhibitory effect on the protein aggregation of Aβ1–42”. In the data set on Aβ1–42 aggregation (peptide 50 μM, Aβ1–42 25 μM, 37°C, 24 h, ThT, n = 5 mean, Aβ alone = 100% fluorescence), the “Inhibition of Aβ1–42 aggregation” value is 100%. Further, the “ThT fluorescence intensity vs Aβ group” value in the data set with Aβ1–42 aggregation (setting [5]) is recorded as “significantly lower than that of the Aβ group (p < 0.05)”. Moreover, the “Cell viability at ratios above 1:1 (1:2, 1:4)” value in the data set on PC12 cells [2] (after ratio 1:1, increasing P21 (1:2, 1:4)) was “cell viability continued to increase”. Further, the “Cell viability at ratio 1:4” value in the data set with PC12 cells [2] (ratio 1:4) is reported as “reaching the maximum at 1:4, which was close to the normal level”.
As to `CC(C)=CCC[C@@H](C)[C@H]1CC[C@@]2(C)C3=C(CC[C@]12C)[C@@]1(C)CC[C@H](O)C(C)(C)[C@@H]1CC3` [lanosterol], the “Aβ-induced cytotoxicity in PC12 cells” value in the data set with PC12 cells [3] (ref Zhou et al., 2019) was “reduce the Aβ-induced cytotoxicity in PC12 cells”.
As to `CC(C)=CCC/C(C)=C/CC/C(C)=C/CC/C(C)=C/CC1=C(C)C(=O)c2ccccc2C1=O` [vitamin K2], in the data set with apoptosis caused by Aβ, the “Apoptosis caused by Aβ accumulation” value is given as “significantly reduced” and the “Ratio of Bax/Bcl-2” value was “decreased”.
For the compound Ac-KQKLLLFLEE-NH2, the “Aβ1–42 oligomerization” value with Aβ1–42 oligomerization (co-assembles with mature Aβ1–42 fibrils) was “effectively inhibit Aβ1–42 oligomerization”. In addition, in the data set on Aβ1–42 oligomerization, the Self-assembly result was “form amyloid fibrils”.
Turning to “H2N-KLVFF (4-I) -CONH2 [iodinated KLVFF]”, the “Anti-aggregation activity vs other halogenated peptides” value with Aβ aggregation (10 μM peptide, 10 μM Aβ, 1:1, ref Khalili Samani and Mofid, 2020) is on record as “show the best resistance compared to other halogenated peptides”.
As for “KLVFFAE [amyloid β-sheet mimics ; KLVFFAE (Aβ16–22)]”, the “Aβ aggregation and toxicity” value with Aβ aggregation was “antagonizing Aβ protein aggregation and reducing Aβ toxicity”.
For the compound “LFFFAED [amyloid β-sheet mimics ; LFFFAED (Aβ17–23)]”, the “Aβ aggregation and toxicity” value with Aβ aggregation was “antagonizing Aβ protein aggregation and reducing Aβ toxicity”.
Consider QKLVFF, for which the “Formation of Aβ fibers” value with Aβ aggregation (ref Findeis et al., 1999) is recorded as “inhibiting the formation of Aβ fibers”.
As for “pituitary adenylate cyclase activating polypeptide [PACAP]”, in the data set on PC12 cells [3] (ref Onoue et al., 2002), the “Aβ-induced cell death in PC12 cells” value is reported as “attenuates Aβ-induced cell death in PC12 cells by increasing cAMP” and the Caspase-3 entry was “inactivation of apoptotic factor (caspase-3)”.
